The results in this text go back to patent US20250122539A1, “LARGE SCALE PRODUCTION OF DIVARIN, DIVARINIC ACID AND OTHER ALKYL RESORCINOLS BY FERMENTATION” (priority 2021, published 2025).

This data set relates to S. cerevisiae. The data set is described as follows: Toxicity of organic phase (overlay/underlay) compounds to growth of the host strain. Conditions: for toxicity to growth: compound as organic phase. An excerpt: In-situ liquid-liquid extraction (biphasic fermentation) is a strategy that can be employed in accordance with the present invention for physical separation of product from microorganisms via partitioning into the water immiscible organic liquid phase from an aqueous culture phase. The organic liquid phase or organic phase is present as either an overlay if its density is less than that of the aqueous phase, or an underlay if its density is greater than that of the aqueous phase. Certain properties of the overlay or underlay are considered for production of olivetolic acid/olivetol and other resorcinols such as of formulas IA and IB: (1) non-toxic or low toxicity for growth of the host strain, and/or (2) a favorable partitioning coefficient of the product in the organic phase vs. the aqueous phase, and/or (3) preferably a lower partition coefficient for fed hexanoic acid (for olivetolic acid/olivetol) or other fatty acid such as RCO2H (for other resorcinols) in the organic phase vs. the aqueous phase. Additional properties of the organic phase enhance its suitability for downstream conversion, e.g. and without limitation, to cannabigerol and other cannabinoid compounds, including suitability as a solvent or co-solvent during downstream prenylation or other reactions, and boiling point if downstream separation by distillation is employed.

Take “2,2,4-trimethyl-1,3-pentanediol monoisobutyrate [Texanol]”: the toxicity to growth entry (under the test conditions) is given as “inhibitory to growth”.

Turning to `CCCCCCCCCCO` [Decanol], the toxicity to growth entry (under the test conditions) was “toxic to growth”. With `CCCCOC(=O)CCCCCCCCC(=O)OCCCC` [Dibutyl sebacate], the toxicity to growth entry (under the test conditions) is “completely non-inhibitory to growth”.

As to `CCCCCCCCCCCCCC(=O)OC(C)C` [IPM, isopropyl myristate], for the setting “under the test conditions”, the toxicity to growth entry is “non-toxic”. For `CCCCCCCC(=O)OC(C)C` [Isopropyl octanoate], under “under the test conditions”, the toxicity to growth result is reported as “moderately inhibitory but allowed for some growth”. For `CCCCCCCC(=O)OCC(COC(=O)CCCCCCC)OC(=O)CCCCCCC` [Tricaprylin], the toxicity to growth result (under the test conditions) is given as “fairly toxic, however allowed some growth of strains”. As to `CCCCCCCCCCCC(=O)OCCCC` [butyl laurate], the toxicity to growth entry (under the test conditions) is given as “non-toxic”.

Turning to `CC(C)(C)OC(=O)CC(=O)OC(C)(C)C` [di-tert-butyl malonate], where the note is “1-10% (v/v), particularly 1-2.5% (v/v), in IPM and isopar M”, the “toxicity toward growth of mixtures” value is on record as “much lower toxicity”. Also, the toxicity to growth entry is “appearing toxic or to induce substantial lag” (with galactose addition) and “supported growth of all strains” (with glucose addition). Turning to `CCCCOC(=O)CCCCC(=O)OCCCC` [dibutyl adipate], for the setting “under the test conditions”, the toxicity to growth result is recorded as “no apparent toxicity”. On to `CCOC(=O)C(CC)(CC)C(=O)OCC` [diethyl diethylmalonate], for which the toxicity to growth result is, setting by setting: (with galactose addition) “substantial lag”; (with glucose addition) “modest growth by most strains”. Regarding `CCOC(=O)CCCCCCCCC(=O)OCC` [diethyl sebacate], the toxicity to growth entry is, setting by setting: (under the test conditions) “moderately growth inhibitory”; (with galactose addition) “substantial lag”; (with glucose addition) “modest growth by most strains”.

Regarding `CC(C)OC(=O)CCCCC(=O)OC(C)C` [diisopropyl adipate], where the note is “under the test conditions”, the toxicity to growth result is “Growth was observed”. On the same count and under the same terms, the entry for `CCCCCCCCCCCC` [dodecane] is “Lack of toxicity”. In the case of `CCCCCCCCCC(=O)OCC` [ethyl decanoate], for the setting “under the test conditions”, the toxicity to growth entry is reported as “increasingly non-toxic”. On the same count and under the same terms, the entry for `CCCCCCCCCCCC(=O)OCC` [ethyl laurate] is “non-toxic”; for `CCCCCCCCCCCCCC(=O)OCC` [ethyl myristate] it is “non-toxic”; for `CCCCCCCCCCCCCCCC` [hexadecane] it is “Lack of toxicity”. Still for that read-out and setting: the entry for `CCCCCCOC(=O)CCCCC` [hexyl hexanoate] is “moderately non-toxic”. For the compound `CCCCCCCCCC(=O)OC` [methyl decanoate], the toxicity to growth result (under the test conditions) was “moderately inhibitory to growth but still allowed for growth”. On to `CCCCCCCCCCCCCC(=O)OC` [methyl myristate], for which the toxicity to growth entry (under the test conditions) is “non-toxic”.

Take `CCCCCCCCOC(C)=O` [octyl acetate]: for the setting “under the test conditions”, the toxicity to growth result was “toxic”.

As for `CCCCCCCC/C=C\CCCCCCCCO` [oleyl alcohol], for the setting “under the test conditions”, the toxicity to growth result is given as “supported robust growth”. As for `CCCCCCCCCCCCCC` [tetradecane], the toxicity to growth entry (under the test conditions) is “Lack of toxicity”.
